From ChEMBL document CHEMBL1201862, “PubChem BioAssay data set” (2004)
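Grown in 96-well plates, cells were treated for 48 hours with each compound at five concentrations. Insufficient inhibition: endpoint recorded as highest concentration tested. Here, GI50 denotes the concentration required for 50% inhibition of growth.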 Activity calls are given as the source filed them. Rule as the data show it: active = GI50 up to about 1.1 µM and inactive = higher.

Tests used:
Test in all cases: NCI-60 cell line screen, 48 h
HL-60 = system: HL-60
A498 = system: A498
T47D = system: T47D
UO-31 = system: UO-31
PC-3 = system: PC-3
A549 = system: A549
TK-10 = system: TK-10
SK-MEL-28 = system: SK-MEL-28
SF-539 = system: SF-539
K562 = system: K562
CAKI-1 = system: CAKI-1
LXFL 529 = system: LXFL 529
SK-MEL-5 = system: SK-MEL-5
DMS-273 = system: DMS-273
NCI-H460 = system: NCI-H460
COLO 205 = system: COLO 205
Hs-578T = system: Hs-578T
OVCAR-8 = system: OVCAR-8
MDA-MB-435 = system: MDA-MB-435
IGROV-1 = system: IGROV-1
HOP-18 = system: HOP-18
SF-295 = system: SF-295
OVCAR-5 = system: OVCAR-5
KM12 = system: KM12
SR = system: SR
RPMI-8226 = system: RPMI-8226
NCI-H23 = system: NCI-H23
NCI-H226 = system: NCI-H226
M19-MEL = system: M19-MEL
NCI-H522 = system: NCI-H522
SNB-75 = system: SNB-75
Malme-3M = system: Malme-3M
HCT-116 = system: HCT-116
SK-MEL-2 = system: SK-MEL-2
SW-620 = system: SW-620
DLD-1 = system: DLD-1
SNB-19 = system: SNB-19
MCF7 = system: MCF7
BT-549 = system: BT-549
M14 = system: M14
SNB-78 = system: SNB-78
LOX IMVI = system: LOX IMVI
U-251 = system: U-251
HCC 2998 = system: HCC 2998
SF-268 = system: SF-268
RXF 393 = system: RXF 393
HCT-15 = system: HCT-15
MOLT-4 = system: MOLT-4
UACC-257 = system: UACC-257
786-0 = system: 786-0
CCRF-CEM = system: CCRF-CEM
HOP-62 = system: HOP-62
UACC-62 = system: UACC-62
DU-145 = system: DU-145
MDA-N = system: MDA-N
OVCAR-3 = system: OVCAR-3
KM-20L2 = system: KM-20L2
EKVX = system: EKVX
HOP-92 = system: HOP-92
DMS-114 = system: DMS-114
SN12C = system: SN12C
HT-29 = system: HT-29
ACHN = system: ACHN
OVCAR-4 = system: OVCAR-4
MDA-MB-231 = system: MDA-MB-231
SK-OV-3 = system: SK-OV-3
XF498 = system: XF498

## COc1ccc2[nH]c3c4c(ccc3c2c1)C(=O)C=CC4=O
HL-60
  GI50: 0.439 µM (active)
A498
  GI50: 31.3 µM (inactive)
T47D
  GI50: 2.64 µM (inactive)
UO-31
  GI50: 14.8 µM (inactive)
PC-3
  GI50: 18.7 µM (inactive)
A549
  GI50: 28.6 µM (inactive)
TK-10
  GI50: 14.6 µM (inactive)
SK-MEL-28
  GI50: 8.2 µM (inactive)
SF-539
  GI50: 15.7 µM (inactive)
K562
  GI50: 1.53 µM (inactive)
CAKI-1
  GI50: 9.25 µM (inactive)
LXFL 529
  GI50: 5.02 µM (inactive)
SK-MEL-5
  GI50: 18.9 µM (inactive)
DMS-273
  GI50: 16.2 µM (inactive)
NCI-H460
  GI50: 24.8 µM (inactive)
COLO 205
  GI50: 5.3 µM (inactive)
Hs-578T
  GI50: 24.3 µM (inactive)
OVCAR-8
  GI50: 5.22 µM (inactive)
MDA-MB-435
  GI50: 25.9 µM (inactive)
IGROV-1
  GI50: 16 µM (inactive)
HOP-18
  GI50: 10.8 µM (inactive)
SF-295
  GI50: 24.7 µM (inactive)
OVCAR-5
  GI50: 20.4 µM (inactive)
KM12
  GI50: 21.6 µM (inactive)
SR
  GI50: 0.333 µM (active)
RPMI-8226
  GI50: 2.08 µM (inactive)
NCI-H23
  GI50: 12.7 µM (inactive)
NCI-H226
  GI50: 21.6 µM (inactive)
M19-MEL
  GI50: 14.3 µM (inactive)
NCI-H522
  GI50: 1.74 µM (inactive)
SNB-75
  GI50: 18.8 µM (inactive)
Malme-3M
  GI50: 7.73 µM (inactive)
HCT-116
  GI50: 3.62 µM (inactive)
SK-MEL-2
  GI50: 13.8 µM (inactive)
SW-620
  GI50: 2.39 µM (inactive)
DLD-1
  GI50: 2.54 µM (inactive)
SNB-19
  GI50: 40.5 µM (inactive)
MCF7
  GI50: 10.8 µM (inactive)
BT-549
  GI50: 27.8 µM (inactive)
M14
  GI50: 10 µM (inactive)
SNB-78
  GI50: 16.3 µM (inactive)
LOX IMVI
  GI50: 9.31 µM (inactive)
U-251
  GI50: 17.1 µM (inactive)
HCC 2998
  GI50: 22.5 µM (inactive)
SF-268
  GI50: 17.1 µM (inactive)
RXF 393
  GI50: 2.48 µM (inactive)
HCT-15
  GI50: 4.42 µM
MOLT-4
  GI50: 0.448 µM (active)
UACC-257
  GI50: 10 µM (inactive)
786-0
  GI50: 11.4 µM (inactive)
CCRF-CEM
  GI50: 0.324 µM (active)
HOP-62
  GI50: 51.2 µM (inactive)
UACC-62
  GI50: 16.7 µM (inactive)
DU-145
  GI50: 34.8 µM (inactive)
MDA-N
  GI50: 16.2 µM (inactive)
OVCAR-3
  GI50: 8.36 µM (inactive)
KM-20L2
  GI50: 18.9 µM (inactive)
EKVX
  GI50: 16.4 µM (inactive)
HOP-92
  GI50: 3.34 µM (inactive)
DMS-114
  GI50: 11.8 µM (inactive)
SN12C
  GI50: 11 µM (inactive)
HT-29
  GI50: 20.3 µM (inactive)
ACHN
  GI50: 4.76 µM (inactive)
OVCAR-4
  GI50: 15 µM (inactive)
MDA-MB-231
  GI50: 17.4 µM (inactive)
SK-OV-3
  GI50: 43.4 µM (inactive)

## COC(=O)CC(C(C(=O)OCc1ccccc1)C(C)O)N1C(=O)OCC1c1ccccc1 (stereo unspecified)
HL-60
  GI50: 34.2 µM (inactive)
A498
  GI50: 22.2 µM (inactive)
UO-31
  GI50: 24.3 µM (inactive)
A549
  GI50: 44.8 µM (inactive)
TK-10
  GI50: > 100 µM (inactive)
SK-MEL-28
  GI50: > 100 µM (inactive)
SF-539
  GI50: > 100 µM (inactive)
K562
  GI50: 34.4 µM (inactive)
LXFL 529
  GI50: 56.1 µM (inactive)
SK-MEL-5
  GI50: 42.3 µM (inactive)
DMS-273
  GI50: 66.1 µM (inactive)
NCI-H460
  GI50: 68.2 µM (inactive)
COLO 205
  GI50: 48.4 µM (inactive)
OVCAR-8
  GI50: 91.6 µM (inactive)
IGROV-1
  GI50: 69.3 µM (inactive)
SF-295
  GI50: 45 µM (inactive)
SR
  GI50: 38.1 µM (inactive)
RPMI-8226
  GI50: 27.6 µM (inactive)
NCI-H23
  GI50: 60.1 µM (inactive)
NCI-H226
  GI50: 31.6 µM (inactive)
M19-MEL
  GI50: 69.2 µM (inactive)
SNB-75
  GI50: 20 µM (inactive)
Malme-3M
  GI50: > 100 µM (inactive)
HCT-116
  GI50: > 100 µM (inactive)
SK-MEL-2
  GI50: > 100 µM (inactive)
SW-620
  GI50: > 100 µM (inactive)
DLD-1
  GI50: 60.4 µM (inactive)
SNB-19
  GI50: 75.2 µM (inactive)
M14
  GI50: > 100 µM (inactive)
LOX IMVI
  GI50: > 100 µM (inactive)
U-251
  GI50: 83 µM (inactive)
HCC 2998
  GI50: > 100 µM (inactive)
SF-268
  GI50: 97.5 µM (inactive)
RXF 393
  GI50: 95.7 µM (inactive)
HCT-15
  GI50: > 100 µM
MOLT-4
  GI50: 29.4 µM (inactive)
XF498
  GI50: 24.1 µM (inactive)
UACC-257
  GI50: 75.7 µM (inactive)
786-0
  GI50: > 100 µM (inactive)
CCRF-CEM
  GI50: 49 µM (inactive)
HOP-62
  GI50: > 100 µM (inactive)
UACC-62
  GI50: 35.6 µM (inactive)
OVCAR-3
  GI50: 93.5 µM (inactive)
KM-20L2
  GI50: 83.8 µM (inactive)
EKVX
  GI50: 62.1 µM (inactive)
DMS-114
  GI50: 46.9 µM (inactive)
SN12C
  GI50: > 100 µM (inactive)
HT-29
  GI50: > 100 µM (inactive)
ACHN
  GI50: 63.2 µM (inactive)
OVCAR-4
  GI50: 84.1 µM (inactive)
